How the values were obtained:
Test in all cases: drug sensitivity score (DSS3, normalised partial AUC of % inhibition dose-response) (DSS (score)); higher = more sensitive (stronger inhibition of viability); extreme values may be limits of the assay
FMOC02_1 = patient-derived low-grade serous ovarian cancer cells; settings: 72 h; library: FO5A; assay format: 2D, 384-well, CellTiter-Glo
Summary of the method: (§1)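 Cells were dispensed onto 384-well flat clear-bottom plates already holding compounds at five concentrations over a 10,000-fold range, using patient-derived ovarian cancer cells at passage under 10. Incubation lasted 72 h at 37 °C in 5% CO2, after which CellTiter-Glo viability data were processed in Breeze. Higher drug sensitivity scores, each a partial area under the percent-inhibition dose-response curve divided by the log of the upper asymptote, mean more sensitive cells.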

FMOC02_2 = patient-derived low-grade serous ovarian cancer cells; settings: 72 h; library: FO5A; assay format: 2D, 384-well, CellTiter-Glo
Summary of the method: as §1

FMOC02_3 = patient-derived low-grade serous ovarian cancer cells; settings: 72 h; library: FO5A; assay format: 2D, 384-well, CellTiter-Glo
Summary of the method: as §1

FMOC03 = patient-derived mucinous ovarian cancer cells; settings: 72 h; library: FO5A; assay format: 2D, 384-well, CellTiter-Glo
Summary of the method: as §1

FMOC04 = patient-derived high-grade serous ovarian cancer cells; settings: 72 h; library: FO5A; assay format: 2D, 384-well, CellTiter-Glo
Summary of the method: as §1

FMOC06 = patient-derived mucinous ovarian cancer cells; settings: 72 h; library: FO5A; assay format: 2D, 384-well, CellTiter-Glo
Summary of the method: as §1

FMOC09 = patient-derived high-grade serous ovarian cancer cells; settings: 72 h; library: FO5A; assay format: 2D, 384-well, CellTiter-Glo
Summary of the method: as §1

FMOC11 = patient-derived high-grade serous ovarian cancer cells; settings: 72 h; library: FO5A; assay format: 2D, 384-well, CellTiter-Glo
Summary of the method: as §1

FMOC14 = patient-derived high-grade serous ovarian cancer cells; settings: 72 h; library: FO5A; assay format: 2D, 384-well, CellTiter-Glo
Summary of the method: as §1

FMOC17 = patient-derived low-grade serous ovarian cancer cells; settings: 72 h; library: FO5A; assay format: 2D, 384-well, CellTiter-Glo
Summary of the method: as §1

FMOC22 = patient-derived mucinous ovarian cancer cells; settings: 72 h; library: FO5A; assay format: 2D, 384-well, CellTiter-Glo
Summary of the method: as §1

FMOC24 = patient-derived high-grade serous ovarian cancer cells; settings: 72 h; library: FO5A; assay format: 2D, 384-well, CellTiter-Glo
Summary of the method: as §1

FMOC25_1 = patient-derived low-grade serous ovarian cancer cells; settings: 72 h; library: FO4B; assay format: 2D, 384-well, CellTiter-Glo
Summary of the method: as §1

FMOC25_2 = patient-derived low-grade serous ovarian cancer cells; settings: 72 h; library: FO5A; assay format: 2D, 384-well, CellTiter-Glo
Summary of the method: as §1

FMOC27 = patient-derived low-grade serous ovarian cancer cells; settings: 72 h; library: FO5A; assay format: 2D, 384-well, CellTiter-Glo
Summary of the method: as §1

FMOC28 = patient-derived low-grade serous ovarian cancer cells; settings: 72 h; library: FO5A; assay format: 2D, 384-well, CellTiter-Glo
Summary of the method: as §1

Row | SMILES | drug sensitivity score (FMOC02_1) | drug sensitivity score (FMOC02_2) | drug sensitivity score (FMOC02_3) | drug sensitivity score (FMOC03) | drug sensitivity score (FMOC04) | drug sensitivity score (FMOC06) | drug sensitivity score (FMOC09) | drug sensitivity score (FMOC11) | drug sensitivity score (FMOC14) | drug sensitivity score (FMOC17) | drug sensitivity score (FMOC22) | drug sensitivity score (FMOC24) | drug sensitivity score (FMOC25_1) | drug sensitivity score (FMOC25_2) | drug sensitivity score (FMOC27) | drug sensitivity score (FMOC28)
1 | C/C(=C\c1csc(C)n1)[C@@H]1C[C@@H]2O[C@]2(C)CCC[C@H](C)[C@H](O)[C@@H](C)C(=O)C(C)(C)[C@@H](O)CC(=O)N1 [Ixabepilone] | 4.1 | 1.7 | 2.6 | 3 | 1.85 | 2.7 | 1.7 | 3.1 | 0 | 4.4 | 2.3 | 0 | 1.1 | 2.5 | 0.9 | 0
2 | CS(=O)(=O)CCNCc1ccc(-c2ccc3ncnc(Nc4ccc(OCc5cccc(F)c5)c(Cl)c4)c3c2)o1 [Lapatinib] | 5.4 | 6.9 | 4.6 | 5.3 | 0 | 1 | 2.9 | 3.3 | 0.5 | 3 | 0 | 0.05 | 3.6 | 3.7 | 4.3 | 4
3 | Oc1ccc2c(c1)CC[C@H](c1ccccc1)[C@@H]2c1ccc(OCCN2CCCC2)cc1 [Lasofoxifene] | 0 | 0 | 0 | 0 | 0 | 0 | 0 | 0 | 1.1 | 0 | 0 | 0 | 0 | 0 | 0 | 0
4 | Nc1cccc2c1CN(C1CCC(=O)NC1=O)C2=O (stereo unspecified) [Lenalidomide] | 0 | 0 | 2.4 | 0 | 0 | 0.1 | 0 | 0 | 0 | 0 | 0 | 0.6 | 0 | 0 | 0 | 0
5 | COc1cc2nccc(Oc3ccc(NC(=O)NC4CC4)c(Cl)c3)c2cc1C(N)=O [Lenvatinib] | 0 | 0 | 0 | 0 | 0 | 0 | 0 | 0 | 0 | 0 | 0 | 0 | 0 | 0.1 | 0 | 0
6 | N#Cc1ccc(C(c2ccc(C#N)cc2)n2cncn2)cc1 [Letrozole] | 0 | 0 | 0 | 0 | 0 | 0 | 0 | 0 | 0 | 0 | 0 | 0 | 0 | 0 | 0 | 0
7 | Cc1ccc(F)c(NC(=O)Nc2ccc(-c3cccc4[nH]nc(N)c34)cc2)c1 [Linifanib] | 0 | 0 | 0 | 0 | 0 | 0 | 0 | 0 | 0 | 0 | 0 | 0 | 0 | 0 | 0 | 0
8 | C[C@]1(O)C[C@@H](c2nc(-c3ccc4ccc(-c5ccccc5)nc4c3)c3c(N)nccn32)C1 [Linsitinib] | 1.2 | 2.7 | 6.9 | 0.1 | 2.5 | 0.8 | 0.1 | 0.1 | 0 | 0.6 | 0 | 2.1 | 3.7 | 5.8 | 0 | 4.9
9 | Nc1nc(OCc2cc(Br)cs2)c2[nH]cnc2n1 [Lomeguatrib] | 0 | 0.8 | 0.4 | 0 | 0 | 0 | 0 | 0 | 0 | 0 | 0 | 0 | 0 | 1.4 | 0 | 2.6
10 | Cc1c(F)cc(C(=O)NC2CC2)cc1-c1ccc(C(=O)NCC(C)(C)C)cn1 [Losmapimod] | 0.1 | 0 | 0 | 0 | 0 | 1 | 0 | 1.4 | 0 | 0 | 0 | 0 | 0 | 0 | 0 | 0
11 | CC[C@H](C)C(=O)O[C@H]1C[C@@H](C)C=C2C=C[C@H](C)[C@H](CC[C@@H]3C[C@@H](O)CC(=O)O3)[C@H]21 [Lovastatin] | 0 | 0.3 | 3.9 | 0.5 | 0 | 0.9 | 3.3 | 1.3 | 0 | 1.1 | 2.1 | 2.5 | 0 | 1 | 0 | 0.1

Reference: the supplement of paper PMC9938120
